Results: ChEMBL document CHEMBL6071129, “Strategies that regulate Hippo signaling pathway for novel anticancer therapeutics” (Eur J Med Chem, 2024)

How the values were obtained:
HT-29 = test: Antiproliferative activity against human HT-29 cells incubated for 48 hrs by MTT assay; type: functional, cell-based; conditions: HT-29, 48 h
[1] = Antiproliferative activity against human HCA46 cells incubated for 48 hrs by MTT assay; type: functional, cell-based; conditions: HCA46, 48 h
[2] = Inhibition of TEAD4 (unknown origin) to YAP (unknown origin) expressed in HEK293 cells incubated for 16 hrs by dual luciferase reporter assay; type: cell-based; conditions: Homo sapiens, HEK293, 16 h
[3] = Antiproliferative activity against human A2780/CP70 cells incubated for 48 hrs by MTT assay; type: functional, cell-based; conditions: A2780/CP70, 48 h
A2780 = test: Antiproliferative activity against human A2780 cells incubated for 48 hrs by MTT assay; type: functional, cell-based; conditions: A2780, 48 h
HCT-116 = test: Antiproliferative activity against human HCT-116 cells incubated for 48 hrs by MTT assay; type: functional, cell-based; conditions: HCT-116, 48 h

IC50 (HT-29): 3.1 µM
IC50 [2]: 8.6 µM
IC50 (A2780): 12.4 µM
IC50 (HCT-116): 14.7 µM
Structure (SMILES): C=Cc1c(C)/c2[nH]/c1=C\C1=NC(=C\C3=NC(=C\C4=NC(=C5C=CC(C(=O)OC)=C(C(=O)OC)[C@@]45C)\C=2)/C(C)=C3CCC(=O)OC)/C(CCC(=O)O)=C1C
IC50 [1]: 5.55 µM
IC50 [3]: 12.3 µM
